We go through 47 compounds from patent US8916576B2 (Surface Logix, Inc., priority 2005, dated 2014).

Several values for one entry are separate records, joined by “and”; a condition that tells them apart may be missing. Identical values can stand only once. A value given as a limit tells only on which side of the number the result lay.

In one assay the target is ROCK2 (Homo sapiens (Human), UniProt O75116). In words: Inhibition of ROCK2 (Rho kinase inhibition assay; ROCK-II Assay Kit / IMAP). Format: biochemical. Conditions: FIG. 10 legend; ROCK2 versus ROCK1 and PKC. The source says: (§1) Methods of determining kinase inhibition are well known in the art. For example, kinase activity of an enzyme and the inhibitory capacity of a test compound can be determined by measuring enzyme specific phosphorylation of a substrate. Commercial assays and kits can be employed. For example, kinase inhibition can be determined using an IMAP® assay (Molecular Devices). This assay method involves the use of a fluorescently-tagged peptide substrate. Phosphorylation of the tagged peptide by a kinase of interest promotes binding of the peptide to a trivalent metal-based nanoparticle via the specific, high affinity interaction between the phospho-group and the trivalent metal. Proximity to the nanoparticle results in increased fluorescence polarization. Inhibition of the kinase by a kinase inhibitor prevents phosphorylation of the substrate and thereby limits binding of the fluorescently-tagged substrate to the nanoparticle. Such an assay can be compatible with a microwell assay format, allowing simultaneous determination of IC50 of multiple compounds.
Chain of ROCK2 (O75116 whole entry, species assumed): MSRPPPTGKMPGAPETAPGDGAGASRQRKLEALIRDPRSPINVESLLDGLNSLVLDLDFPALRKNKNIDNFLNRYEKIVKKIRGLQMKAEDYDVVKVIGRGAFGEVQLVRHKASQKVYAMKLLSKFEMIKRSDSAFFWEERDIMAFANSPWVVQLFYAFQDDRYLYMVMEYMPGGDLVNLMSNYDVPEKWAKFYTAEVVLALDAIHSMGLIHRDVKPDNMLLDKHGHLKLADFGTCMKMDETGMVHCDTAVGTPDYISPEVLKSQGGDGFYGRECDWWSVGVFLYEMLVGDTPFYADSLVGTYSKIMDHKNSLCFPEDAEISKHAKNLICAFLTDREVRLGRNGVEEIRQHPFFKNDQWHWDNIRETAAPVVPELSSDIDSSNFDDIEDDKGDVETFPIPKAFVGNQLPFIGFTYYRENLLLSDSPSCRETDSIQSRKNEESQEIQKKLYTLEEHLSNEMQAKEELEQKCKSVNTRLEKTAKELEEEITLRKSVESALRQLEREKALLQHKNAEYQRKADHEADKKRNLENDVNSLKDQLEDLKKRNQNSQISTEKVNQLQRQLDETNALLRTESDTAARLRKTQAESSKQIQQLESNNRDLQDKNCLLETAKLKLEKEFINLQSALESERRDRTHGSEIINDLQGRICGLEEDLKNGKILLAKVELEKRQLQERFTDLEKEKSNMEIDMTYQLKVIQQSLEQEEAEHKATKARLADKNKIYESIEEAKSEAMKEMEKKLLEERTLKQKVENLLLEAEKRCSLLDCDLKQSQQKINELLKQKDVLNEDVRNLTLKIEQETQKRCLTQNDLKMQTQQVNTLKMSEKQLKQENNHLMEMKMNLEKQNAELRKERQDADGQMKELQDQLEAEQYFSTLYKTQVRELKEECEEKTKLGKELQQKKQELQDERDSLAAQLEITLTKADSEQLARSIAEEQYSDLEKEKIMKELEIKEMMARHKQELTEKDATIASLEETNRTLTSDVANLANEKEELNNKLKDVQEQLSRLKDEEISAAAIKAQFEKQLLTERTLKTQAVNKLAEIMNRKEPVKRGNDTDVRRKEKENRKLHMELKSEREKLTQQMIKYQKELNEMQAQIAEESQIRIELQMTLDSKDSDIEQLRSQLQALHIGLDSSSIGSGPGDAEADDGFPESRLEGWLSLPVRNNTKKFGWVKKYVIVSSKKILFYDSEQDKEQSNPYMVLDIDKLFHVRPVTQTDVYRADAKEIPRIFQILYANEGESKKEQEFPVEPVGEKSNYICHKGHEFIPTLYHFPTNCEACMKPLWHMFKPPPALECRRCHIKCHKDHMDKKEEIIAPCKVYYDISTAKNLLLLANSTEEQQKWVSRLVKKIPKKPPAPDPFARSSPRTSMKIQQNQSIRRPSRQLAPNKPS
ROCK-II inhibitory activity can be measured using the ROCK-II Assay Kit (Molecular Devices, inc.; Sunnyvale, Calif.).
(§2) Inhibition of ROCK2 by various compounds was determined.
(§3) Inhibitory activity for Rho kinase was determined for examples of compounds of the present invention. Inhibition of Rho kinase can be assayed as described. For each of these compounds their inhibitory activity for both ROCK 1 and ROCK 2 was determined. […] The IC50 values (in μM) for each of these compounds show a selectivity for inhibiting ROCK2.
In the case of `CC(C)NC(=O)COc1cccc(-c2nc(Nc3ccc4[nH]ncc4c3)c3ccccc3n2)c1` [Example 82, 2-(3-(4-(1H-indazol-5-ylamino)quinazolin-2-yl)phenoxy)-N-isopropylacetamide], the “Specificity of kinase inhibition (FIG. 10)” value is listed as “specific inhibition of ROCK2”.

With `C[C@@H](N)[C@H]1CC[C@H](C(=O)Nc2ccncc2)CC1` [Example Y27632, reference compound], the “Specificity of kinase inhibition (FIG. 10)” value was “inhibits both ROCK1 and ROCK2, as well as PKC”.

The assay is the same for the next values; noted with them: Table 1; repeat determinations.
Turning to `CCCC(=O)Nc1cccc(-c2nc(Nc3ccc4[nH]ncc4c3)c3cc(OCCN4CCN(C)CC4)ccc3n2)c1` [Example 203, N-(3-(4-(1H-indazol-5-ylamino)-6-(2-(4-methylpiperazin-1-yl)ethoxy)-quinazolin-2-yl)phenyl)butyramide], the IC50 is 0.012 µM and 0.0095 µM.

Take `CCCC(=O)Nc1cccc(-c2nc(Nc3ccc4[nH]ncc4c3)c3cc(OCCN4CCC(O)C4)ccc3n2)c1` (centres unmarked) [Example 205, N-(3-(4-(1H-indazol-5-ylamino)-6-(2-(3-hydroxypyrrolidin-1-yl)ethoxy)-quinazolin-2-yl)phenyl)butyramide]: the IC50 is 0.011 µM and 0.012 µM and 0.008 µM and 0.013 µM.

As to `CCCC(=O)Nc1cccc(-c2nc(Nc3ccc4[nH]ncc4c3)c3cc(OCCN4CCCC4=O)c(OC)cc3n2)c1` [Example 206, N-(3-(4-(1H-indazol-5-ylamino)-7-methoxy-6-(2-(2-oxopyrrolidin-1-yl)ethoxy)quinazolin-2-yl)phenyl)butyramide], the IC50 was 0.048 µM and 0.064 µM.

Consider `CCCC(=O)Nc1cccc(-c2nc(Nc3ccc4[nH]ncc4c3)c3cc(OCCN4CCN(C)CC4)c(OC)cc3n2)c1` [Example 209, N-(3-(4-(1H-indazol-5-ylamino)-7-methoxy-6-(2-(4-methylpiperazin-1-yl)ethoxy)quinazolin-2-yl)phenyl)butyramide], for which the concentration for half-maximal inhibition (IC50) was 0.016 µM and 0.014 µM.

For the compound `CCCC(=O)Nc1cccc(-c2nc(Nc3ccc4[nH]ncc4c3)c3cc(OCCN4CC[C@H](N(C)C)C4)c(OC)cc3n2)c1` [Example 210, N-(3-(4-(1H-indazol-5-ylamino)-6-(2-((S)-3-(dimethylamino)pyrrolidin-1-yl)ethoxy)-7-methoxyquinazolin-2-yl)phenyl)butyramide], the half-inhibitory concentration (IC50) is 0.018 µM and 0.01 µM.

Turning to `CCCC(=O)Oc1cccc(-c2nc(Nc3ccc4[nH]ncc4c3)c3ccccc3n2)c1` [Example 211], the IC50 worked out at 0.129 µM. That is a sub-micromolar value.

With `CCCC(=O)Nc1ccccc1-c1nc(Nc2ccc3[nH]ncc3c2)c2ccccc2n1` [Example 212], the IC50 is > 100 µM.

For the compound `COCCN(C)CC(=O)Nc1ccccc1-c1nc(Nc2ccc3[nH]ncc3c2)c2ccccc2n1` [Example 213], the IC50 was > 100 µM.

In the case of `CC(C)(C)C(=O)Nc1ccccc1-c1nc(Nc2ccc3[nH]ncc3c2)c2ccccc2n1` [Example 214], the IC50 is > 100 µM.

On to `CNCC(=O)Nc1ccccc1-c1nc(Nc2ccc3[nH]ncc3c2)c2ccccc2n1` [Example 215], for which the IC50 is 17 µM and > 10 µM.

With `O=C(Nc1ccccc1-c1nc(Nc2ccc3[nH]ncc3c2)c2ccccc2n1)c1ccoc1` [Example 216], the 50% inhibitory concentration (IC50) is > 100 µM.

`O=C(CN1CCCC1)Nc1ccccc1-c1nc(Nc2ccc3[nH]ncc3c2)c2ccccc2n1` [Example 217] had an IC50 of 36 µM.

In the case of `O=C(Nc1ccccc1-c1nc(Nc2ccc3[nH]ncc3c2)c2ccccc2n1)C1CCCNC1` (centres unmarked) [Example 218], the half-maximal inhibitory concentration (IC50) is > 100 µM.

Take `COC(=O)Nc1ccccc1-c1nc(Nc2ccc3[nH]ncc3c2)c2ccccc2n1` [Example 219]: the IC50 came out at 2.9 µM. That is a single-digit micromolar value.

As for `O=C(Nc1ccccc1-c1nc(Nc2ccc3[nH]ncc3c2)c2ccccc2n1)N1CCOCC1` [Example 220], the IC50 is > 100 µM.

On to `CN(C)C(=O)Nc1ccccc1-c1nc(Nc2ccc3[nH]ncc3c2)c2ccccc2n1` [Example 221], for which it took 49 µM to reach half-maximal inhibition (IC50).

Turning to `O=C(Nc1ccccc1-c1nc(Nc2ccc3[nH]ncc3c2)c2ccccc2n1)c1ccncc1` [Example 222], the IC50 was > 100 µM.

As to `O=C(Nc1ccccc1-c1nc(Nc2ccc3[nH]ncc3c2)c2ccccc2n1)c1ccccn1` [Example 223], the IC50 is > 100 µM.

As for `CN(C)CCC(=O)Nc1ccccc1-c1nc(Nc2ccc3[nH]ncc3c2)c2ccccc2n1` [Example 224], inhibition was half-maximal at 5.3 µM (IC50).

`COCC(=O)Nc1ccccc1-c1nc(Nc2ccc3[nH]ncc3c2)c2ccccc2n1` [Example 225] showed a 50% inhibitory concentration (IC50) of 1.7 µM.

For the compound `CC(C)NC(=O)CNc1cccc(-c2nc(Nc3ccc4[nH]ncc4c3)c3ccccc3n2)c1` [Example 230], the IC50 was > 3 µM.

In the case of `O=C(CN1CCOCC1)Nc1ccccc1-c1nc(Nc2ccc3[nH]ncc3c2)c2ccccc2n1` [Example 231], the concentration for half-maximal inhibition (IC50) is > 3 µM.

`CC(C)NC(=O)COc1ccccc1-c1nc(Nc2ccc3[nH]ncc3c2)c2ccccc2n1` [Example 232]: the IC50 is > 100 µM.

On to `Oc1ccccc1-c1nc(Nc2ccc3[nH]ncc3c2)c2ccccc2n1` [Example 233], for which the half-maximal inhibitory concentration (IC50) is 2 µM and 2.5 µM.

As to `COCCNC(=O)COc1ccccc1-c1nc(Nc2ccc3[nH]ncc3c2)c2ccccc2n1` [Example 234], the IC50 was > 100 µM.

Regarding `O=C(COc1ccccc1-c1nc(N(CC(=O)NCC2CC2)c2ccc3[nH]ncc3c2)c2ccccc2n1)NCC1CC1` [Example 235], the IC50 is > 100 µM.

As to `O=C(COc1ccccc1-c1nc(N(CC(=O)NCc2ccccc2)c2ccc3[nH]ncc3c2)c2ccccc2n1)NCc1ccccc1` [Example 236], the IC50 is > 100 µM.

On to `O=C(COc1ccccc1-c1nc(Nc2ccc3[nH]ncc3c2)c2ccccc2n1)NCc1ccccc1` [Example 237], for which the IC50 is > 100 µM.

In the case of `COCCNC(=O)COc1ccccc1-c1nc(N(CC(=O)NCCOC)c2ccc3[nH]ncc3c2)c2ccccc2n1` [Example 238], the IC50 was > 100 µM.

For the compound `COc1ccccc1-c1nc(Nc2ccc3[nH]ncc3c2)c2ccccc2n1` [Example 239], the half-inhibitory concentration (IC50) was > 100 µM.

The compound `CC(=O)Oc1ccccc1-c1nc(Nc2ccc3[nH]ncc3c2)c2ccccc2n1` [Example 240] returned an IC50 of 23 µM.

Regarding `CCCC(=O)Nc1cccc(-c2nc(Nc3ccc4c(cnn4C)c3)c3cc(OCCN(C)C)ccc3n2)c1` [Example 243], the IC50 was > 0.3 µM.

For `CCCC(=O)Nc1cccc(-c2nc(Nc3ccc4[nH]ncc4c3)c3cc(OCC4CC4)ccc3n2)c1` [Example 258], the IC50 was 0.255 µM and 0.182 µM.

Regarding `CCCCC(=O)Nc1cccc(-c2nc(Nc3ccc4[nH]ncc4c3)c3ccccc3n2)c1` [Example 259], inhibition was half-maximal at 0.029 µM (IC50). In other words, the double-digit nanomolar range.

Take `CCCC(=O)Nc1cccc(-c2nc(Nc3ccc4c(cnn4C(=O)OC(C)(C)C)c3)c3cc(OCCOC)c(OC)cc3n2)c1` [Example 261]: the IC50 is > 0.3 µM.

Regarding `CCCC(=O)Nc1cccc(-c2nc(Nc3ccc4[nH]ncc4c3)c3cc(OC)c(OCCOC)cc3n2)c1` [Example 262], the IC50 stood at 0.024 µM. This lies in the double-digit nanomolar range.

Regarding `c1ccc(-c2nc(Nc3ccc4[nH]ncc4c3)c3cc(OCCN4CCOCC4)ccc3n2)cc1` [Example 265], the IC50 was 6.5 µM and 7.3 µM.

`Oc1ccc2nc(-c3ccccc3)nc(Nc3ccc4[nH]ncc4c3)c2c1` [Example 267]: the IC50 was 3.9 µM.

For another assay, the target named is ROCK 1 (Homo sapiens (Human), UniProt Q13464). In words: Inhibition of ROCK1 (Rho kinase inhibition assay). Format: biochemical. The following applies: Tables 2.1-2.4.
Chain of ROCK 1 (Q13464 whole entry, species assumed): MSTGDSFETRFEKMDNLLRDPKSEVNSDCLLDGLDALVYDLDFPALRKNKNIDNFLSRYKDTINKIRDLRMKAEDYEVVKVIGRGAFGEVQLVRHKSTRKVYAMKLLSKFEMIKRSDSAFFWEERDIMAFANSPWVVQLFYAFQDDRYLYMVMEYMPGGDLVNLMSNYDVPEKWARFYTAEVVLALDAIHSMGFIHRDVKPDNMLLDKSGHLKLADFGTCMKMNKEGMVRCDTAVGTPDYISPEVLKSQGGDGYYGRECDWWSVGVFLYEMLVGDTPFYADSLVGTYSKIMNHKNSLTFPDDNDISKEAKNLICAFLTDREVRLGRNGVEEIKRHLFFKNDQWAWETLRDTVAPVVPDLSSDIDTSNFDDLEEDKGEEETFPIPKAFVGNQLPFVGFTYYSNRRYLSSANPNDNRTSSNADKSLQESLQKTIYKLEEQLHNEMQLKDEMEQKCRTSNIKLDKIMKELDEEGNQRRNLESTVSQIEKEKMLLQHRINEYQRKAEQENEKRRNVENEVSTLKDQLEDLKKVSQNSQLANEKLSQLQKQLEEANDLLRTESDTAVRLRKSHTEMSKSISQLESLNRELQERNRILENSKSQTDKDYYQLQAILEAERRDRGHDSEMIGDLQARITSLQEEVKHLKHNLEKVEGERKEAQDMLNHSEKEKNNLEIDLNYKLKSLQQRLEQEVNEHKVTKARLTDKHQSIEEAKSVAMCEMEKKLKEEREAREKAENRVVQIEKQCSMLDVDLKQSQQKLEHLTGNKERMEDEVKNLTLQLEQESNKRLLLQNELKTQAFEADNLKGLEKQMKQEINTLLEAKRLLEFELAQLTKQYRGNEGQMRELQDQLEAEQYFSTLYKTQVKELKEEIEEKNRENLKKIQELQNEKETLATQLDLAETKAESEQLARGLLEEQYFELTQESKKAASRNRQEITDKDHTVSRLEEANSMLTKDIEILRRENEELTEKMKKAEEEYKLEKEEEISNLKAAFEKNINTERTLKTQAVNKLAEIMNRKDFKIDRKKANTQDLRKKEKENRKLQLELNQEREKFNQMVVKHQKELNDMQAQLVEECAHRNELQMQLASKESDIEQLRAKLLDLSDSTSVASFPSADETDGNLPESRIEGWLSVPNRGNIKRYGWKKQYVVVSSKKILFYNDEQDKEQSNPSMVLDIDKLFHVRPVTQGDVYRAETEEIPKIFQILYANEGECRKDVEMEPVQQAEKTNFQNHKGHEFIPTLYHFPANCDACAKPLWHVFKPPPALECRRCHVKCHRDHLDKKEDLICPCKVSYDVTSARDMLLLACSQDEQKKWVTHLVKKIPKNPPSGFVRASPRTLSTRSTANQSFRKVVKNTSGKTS
Text: as §1, §2, §3
As to `COCCNC(=O)COc1cccc(-c2nc(Nc3ccc4[nH]ncc4c3)c3ccccc3n2)c1` [Example 54, 2-(3-(4-(1H-indazol-5-ylamino)quinazolin-2-yl)phenoxy)-N-(2-methoxyethyl)acetamide], the IC50 is > 10000 nM.

Take `O=C(COc1cccc(-c2nc(Nc3ccc4[nH]ncc4c3)c3ccccc3n2)c1)Nc1cccnc1` [Example 55, 2-(3-(4-(1H-indazol-5-ylamino)quinazolin-2-yl)phenoxy)-N-(pyridin-3-yl)acetamide]: the IC50 is > 10000 nM.

As to `CCCC(=O)Nc1cccc(-c2nc(Nc3ccc4[nH]ncc4c3)c3cc(OCCN(C)C)ccc3n2)c1` [Example 141, N-(3-(4-(1H-indazol-5-ylamino)-6-(2-(dimethylamino)ethoxy)quinazolin-2-yl)phenyl)butyramide], the half-maximal inhibitory concentration (IC50) is > 1000 nM.

On to `CCCC(=O)Nc1cccc(-c2nc(Nc3ccc4[nH]ncc4c3)c3cc(OCCCN4CCOCC4)c(OC)cc3n2)c1` [Example 160, N-(3-(4-(1H-indazol-5-ylamino)-7-methoxy-6-(3-morpholinopropoxy)quinazolin-2-yl)phenyl)butyramide], for which the IC50 was > 3000 nM.

For `COc1cc2nc(-c3cccc(NC(=O)CN4CCOCC4)c3)nc(Nc3ccc4[nH]ncc4c3)c2cc1OCCN1CCCC1` [Example 167, N-(3-(4-(1H-Indazol-5-ylamino)-7-methoxy-6-(2-(pyrrolidin-1-yl)ethoxy)quinazolin-2-yl)phenyl)-2-morpholinoacetamide], the IC50 was > 3000 nM.

Consider `CCCC(=O)Nc1cccc(-c2nc(Nc3ccc4[nH]ncc4c3)c3ccc(OCCOC)cc3n2)c1` [Example 263], for which the IC50 is > 3000 nM.

Turning to `CC(=O)Oc1cccc(-c2nc(Nc3ccc4[nH]ncc4c3)c3ccccc3n2)c1` [Example 272], the concentration for half-maximal inhibition (IC50) was > 10000 nM.

What is called IC50 is the point on the concentration scale where inhibition reaches its midpoint. The low end stands for higher potency, the high end for lower potency.
